What was measured:
[1] = tested on: Human immunodeficiency virus 1; assay: Antiviral activity against HIV1 NL4-3 infected in human MT4 cells assessed as reduction in p24 Gag protein production after 7 days by automated chemiluminescent enzyme immunoassay; format: functional, organism-based; settings: Human immunodeficiency virus 1, NL4-3, MT4, 168 h
[2] = tested on: Human immunodeficiency virus 1; assay: Antiviral activity against Atazanavir-resistant HIV1 infected in human MT4 cells assessed as reduction in p24 Gag protein production after 7 days by automated chemiluminescent enzyme immunoassay; format: functional, organism-based; settings: Human immunodeficiency virus 1, MT4, 168 h
[3] = tested on: Human immunodeficiency virus 1; assay: Antiviral activity against darunavir-resistant HIV1 at passage 30 infected in human MT4 cells assessed as reduction in p24 Gag protein production after 7 days by automated chemiluminescent enzyme immunoassay; format: functional, organism-based; settings: Human immunodeficiency virus 1, MT4, 168 h
[4] = tested on: Human immunodeficiency virus 1; assay: Antiviral activity against darunavir-resistant HIV1 at passage 21 infected in human MT4 cells assessed as reduction in p24 Gag protein production after 7 days by automated chemiluminescent enzyme immunoassay; format: functional, organism-based; settings: Human immunodeficiency virus 1, MT4, 168 h
[5] = tested on: Human immunodeficiency virus 1; assay: Antiviral activity against darunavir-resistant HIV1 at passage 51 infected in human MT4 cells assessed as reduction in p24 Gag protein production after 7 days by automated chemiluminescent enzyme immunoassay; format: functional, organism-based; settings: Human immunodeficiency virus 1, MT4, 168 h
[6] = tested on: Human immunodeficiency virus 1; assay: Antiviral activity against lopinavir-resistant HIV1 infected in human MT4 cells assessed as reduction in p24 Gag protein production after 7 days by automated chemiluminescent enzyme immunoassay; format: functional, organism-based; settings: Human immunodeficiency virus 1, MT4, 168 h
[7] = tested on: Human immunodeficiency virus 1; assay: Antiviral activity against amprenavir-resistant HIV1 infected in human MT4 cells assessed as reduction in p24 Gag protein production after 7 days by automated chemiluminescent enzyme immunoassay; format: functional, organism-based; settings: Human immunodeficiency virus 1, MT4, 168 h
[8] = Selectivity ratio of CC50 for human MT4 cells to IC50 for HIV1 NL4-3 infected in human MT4 cells; format: toxicity, cell-based; settings: MT4 cells infected with HIV1 NL4-3, read-out: Ratio CC50/IC50
MT4 = assay: Cytotoxicity against human MT4 cells after 7 days by MTT assay; format: cell-based; settings: mt4, 168 h
Protease = Protease (Human immunodeficiency virus 1, UniProt Q9YQ12); assay: Inhibition of HIV1 wild type NL4-3 protease expressed in Escherichia coli Rosetta (DE3) pLysS using Abz-Thr-Ile-Nle-Phe-(pNO2)-Gln-Arg-NH2 as substrate preincubated for 5 to 10 mins followed by substrate addition measured after 1 hr by fluorescence assay
Protease, sequence (Q9YQ12 whole entry): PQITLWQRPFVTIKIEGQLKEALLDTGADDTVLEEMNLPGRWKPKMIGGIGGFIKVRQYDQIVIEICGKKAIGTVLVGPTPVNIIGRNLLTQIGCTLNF

Row | SMILES | IC50 [1] | Ki (Protease) | IC50 [2] | IC50 [3] | IC50 [4] | IC50 [5] | IC50 [6] | IC50 [7] | selectivity ratio [8] | CC50 (MT4)
1 | CC(C)(C)NC(=O)[C@@H]1C[C@@H]2CCCC[C@@H]2CN1C[C@@H](O)[C@H](Cc1ccccc1)NC(=O)[C@H](CC(N)=O)NC(=O)c1ccc2ccccc2n1 | 21 nM | – | – | – | – | – | – | – | – | –
2 | CC(C)CN(C[C@@H](O)[C@H](Cc1ccccc1)NC(=O)O[C@H]1CCOC1)S(=O)(=O)c1ccc(N)cc1 | 431 nM | – | > 1000 nM | > 1000 nM | > 1000 nM | > 1000 nM | > 1000 nM | > 1000 nM | – | –
3 | CC(C)CN(C[C@@H](O)[C@H](Cc1ccccc1)NC(=O)O[C@H]1CO[C@H]2OCC[C@H]21)S(=O)(=O)c1ccc(N)cc1 | 3.2 to 3.5 nM | – | – | – | – | > 1000 nM | – | – | – | –
4 | COc1ccc(S(=O)(=O)N(CC(C)C)C[C@@H](O)[C@H](Cc2ccccc2)NC(=O)O[C@H]2C[C@H]3OC(=O)N(CC(C)C)[C@H]3C2)cc1 | – | 0.16 nM | 33 nM | > 1000 nM | > 1000 nM | > 1000 nM | 615 nM | 309 nM | > 2440 | > 100000 nM
5 | COc1ccc(S(=O)(=O)N(CC(C)C)C[C@@H](O)[C@H](Cc2ccccc2)NC(=O)O[C@H]2C[C@H]3OC(=O)N(C)[C@H]3C2)cc1 | 36 nM | 0.03 nM | – | – | – | – | – | – | > 2780 | –
6 | CC(C)CN(C[C@@H](O)[C@H](Cc1ccccc1)NC(=O)O[C@H]1C[C@H]2OC(=O)N(C)[C@H]2C1)S(=O)(=O)c1ccc2nc(NC3CC3)sc2c1 | 28 nM | 0.19 nM | – | – | – | – | – | – | 1540 | 43000 nM
7 | CCCN1C(=O)O[C@@H]2C[C@H](OC(=O)N[C@@H](Cc3ccccc3)[C@H](O)CN(CC(C)C)S(=O)(=O)c3ccc(OC)cc3)C[C@@H]21 | 447 nM | 0.14 nM | – | – | – | – | – | – | – | –
8 | C=CCN1C(=O)O[C@@H]2C[C@H](OC(=O)N[C@@H](Cc3ccccc3)[C@H](O)CN(CC(C)C)S(=O)(=O)c3ccc(OC)cc3)C[C@@H]21 | 369 nM | 0.016 nM | – | – | – | – | – | – | – | –
9 | C=C(C)CN1C(=O)O[C@@H]2C[C@H](OC(=O)N[C@@H](Cc3ccccc3)[C@H](O)CN(CC(C)C)S(=O)(=O)c3ccc(OC)cc3)C[C@@H]21 | 23 to 31 nM | 0.04 nM | 36 nM | > 1000 nM | > 1000 nM | > 1000 nM | > 1000 nM | 261 nM | > 3230 | > 100000 nM
10 | COC(=O)N[C@H](C(=O)N[C@@H](Cc1ccccc1)[C@@H](O)CN(Cc1ccc(-c2ccccn2)cc1)NC(=O)[C@@H](NC(=O)OC)C(C)(C)C)C(C)(C)C [ATAZANAVIR] | 0.89 nM | – | > 1000 nM | > 1000 nM | > 1000 nM | > 1000 nM | 293 nM | 2 nM | – | –
11 | Cc1cccc(C)c1OCC(=O)N[C@@H](Cc1ccccc1)[C@@H](O)C[C@H](Cc1ccccc1)NC(=O)[C@H](C(C)C)N1CCCNC1=O [LOPINAVIR] | 6 nM | – | 311 nM | > 1000 nM | > 1000 nM | > 1000 nM | > 1000 nM | 218 nM | – | –

Now from value to compound, other results behind:

Row | IC50 [1] | Ki (Protease) | SMILES | IC50 [2] | IC50 [3] | IC50 [4] | IC50 [5] | IC50 [6] | IC50 [7] | selectivity ratio [8] | CC50 (MT4)
12 | 251 nM | 0.08 nM | COc1ccc(S(=O)(=O)N(CC(C)C)C[C@@H](O)[C@H](Cc2ccccc2)NC(=O)O[C@H]2C[C@H]3OC(=O)N(c4ccccc4OC)[C@H]3C2)cc1 | – | – | – | – | – | – | – | –
13 | 436 nM | 0.16 nM | COc1ccc(S(=O)(=O)N(CC(C)C)C[C@@H](O)[C@H](Cc2ccccc2)NC(=O)O[C@@H]2C[C@@H]3OC(=O)N(C)[C@@H]3C2)cc1 | – | – | – | – | – | – | > 229 | > 100000 nM
14 | > 1000 nM | 0.63 nM | COc1ccc(N2C(=O)O[C@@H]3C[C@H](OC(=O)N[C@@H](Cc4ccccc4)[C@H](O)CN(CC(C)C)S(=O)(=O)c4ccc(OC)cc4)C[C@@H]32)cc1 | – | – | – | – | – | – | – | –
15 | > 1000 nM | 92.8 nM | COc1ccc(S(=O)(=O)N(CC(C)C)C[C@@H](O)[C@H](Cc2ccccc2)NC(=O)O[C@H]2C[C@H]3OC(=O)N(c4cccc(OC)c4)[C@H]3C2)cc1 | – | – | – | – | – | – | – | –
16 | > 1000 nM | 0.33 nM | COc1ccc(S(=O)(=O)N(CC(C)C)C[C@@H](O)[C@H](Cc2ccccc2)NC(=O)O[C@H]2C[C@H]3OC(=O)N(c4ccccc4)[C@H]3C2)cc1 | – | – | – | – | – | – | – | –
17 | 84 nM | 0.016 nM | COCN1C(=O)O[C@@H]2C[C@H](OC(=O)N[C@@H](Cc3ccccc3)[C@H](O)CN(CC(C)C)S(=O)(=O)c3ccc(OC)cc3)C[C@@H]21 | – | – | – | – | – | – | – | –
18 | > 1000 nM | 1.33 nM | COc1ccc(S(=O)(=O)N(CC(C)C)C[C@@H](O)[C@H](Cc2ccccc2)NC(=O)O[C@@H]2C[C@@H]3OC(=O)N[C@@H]3C2)cc1 | – | – | – | – | – | – | – | –
19 | 48.3 nM | 0.0012 nM | COc1ccc(S(=O)(=O)N(CC(C)C)C[C@@H](O)[C@H](Cc2ccccc2)NC(=O)O[C@@H]2C[C@@H]3NC(=O)O[C@@H]3C2)cc1 | – | – | – | – | – | – | > 2070 | > 100000 nM

Source: ChEMBL document CHEMBL4270667, “Design and Synthesis of Potent HIV-1 Protease Inhibitors Containing Bicyclic Oxazolidinone Scaffold as the P2 Ligands: Structure-Activity Studies and Biological and X-ray Structural Studies” (J Med Chem, 2018)
